# Measurements reported in patent publication US7763596B2, “Selective glucocorticoid receptor agonists” (The University of Manchester, priority 2000, dated 2010).
# “Also recorded” adds a separate entry of the source.
# Key:
# progesterone receptor = target: T1, progesterone receptor (Homo sapiens, UniProt P06401); assay: Classic receptor binding assay, progesterone receptor (data not shown)
# T1 sequence (P06401 1-933): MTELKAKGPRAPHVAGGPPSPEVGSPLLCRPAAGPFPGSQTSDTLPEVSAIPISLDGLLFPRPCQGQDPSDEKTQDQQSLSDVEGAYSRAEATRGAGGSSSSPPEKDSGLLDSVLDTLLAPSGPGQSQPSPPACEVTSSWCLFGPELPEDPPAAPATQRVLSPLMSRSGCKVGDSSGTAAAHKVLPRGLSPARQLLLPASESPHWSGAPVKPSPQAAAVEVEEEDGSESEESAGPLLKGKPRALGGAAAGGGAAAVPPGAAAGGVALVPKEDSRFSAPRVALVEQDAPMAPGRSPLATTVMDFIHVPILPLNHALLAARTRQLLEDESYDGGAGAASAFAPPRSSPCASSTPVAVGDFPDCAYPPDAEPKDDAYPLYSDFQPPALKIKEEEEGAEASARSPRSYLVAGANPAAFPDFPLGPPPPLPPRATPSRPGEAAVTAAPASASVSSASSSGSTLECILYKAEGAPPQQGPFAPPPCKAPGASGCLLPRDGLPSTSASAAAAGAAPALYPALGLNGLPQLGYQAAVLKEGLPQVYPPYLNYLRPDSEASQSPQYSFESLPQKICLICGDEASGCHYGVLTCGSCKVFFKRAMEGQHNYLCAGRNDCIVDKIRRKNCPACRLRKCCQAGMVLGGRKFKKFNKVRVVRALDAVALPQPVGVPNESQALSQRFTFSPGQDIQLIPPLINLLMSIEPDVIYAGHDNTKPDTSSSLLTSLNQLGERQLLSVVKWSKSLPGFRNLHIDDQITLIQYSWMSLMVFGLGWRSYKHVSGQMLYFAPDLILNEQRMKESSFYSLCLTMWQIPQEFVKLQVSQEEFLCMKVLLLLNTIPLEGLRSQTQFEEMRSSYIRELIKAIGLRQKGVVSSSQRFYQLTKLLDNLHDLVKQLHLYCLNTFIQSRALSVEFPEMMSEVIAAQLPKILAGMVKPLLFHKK
# glucocorticoid receptor [1] = target: T2, glucocorticoid receptor (Homo sapiens, UniProt P04150); assay: Ligand binding competition assay, 3H Dexamethasone; parameters: Human HeLa 53 cells; endogenous in cells; details: Human HeLa 53 cells, 2 hours @25° C.
# T2 sequence (P04150 1-777): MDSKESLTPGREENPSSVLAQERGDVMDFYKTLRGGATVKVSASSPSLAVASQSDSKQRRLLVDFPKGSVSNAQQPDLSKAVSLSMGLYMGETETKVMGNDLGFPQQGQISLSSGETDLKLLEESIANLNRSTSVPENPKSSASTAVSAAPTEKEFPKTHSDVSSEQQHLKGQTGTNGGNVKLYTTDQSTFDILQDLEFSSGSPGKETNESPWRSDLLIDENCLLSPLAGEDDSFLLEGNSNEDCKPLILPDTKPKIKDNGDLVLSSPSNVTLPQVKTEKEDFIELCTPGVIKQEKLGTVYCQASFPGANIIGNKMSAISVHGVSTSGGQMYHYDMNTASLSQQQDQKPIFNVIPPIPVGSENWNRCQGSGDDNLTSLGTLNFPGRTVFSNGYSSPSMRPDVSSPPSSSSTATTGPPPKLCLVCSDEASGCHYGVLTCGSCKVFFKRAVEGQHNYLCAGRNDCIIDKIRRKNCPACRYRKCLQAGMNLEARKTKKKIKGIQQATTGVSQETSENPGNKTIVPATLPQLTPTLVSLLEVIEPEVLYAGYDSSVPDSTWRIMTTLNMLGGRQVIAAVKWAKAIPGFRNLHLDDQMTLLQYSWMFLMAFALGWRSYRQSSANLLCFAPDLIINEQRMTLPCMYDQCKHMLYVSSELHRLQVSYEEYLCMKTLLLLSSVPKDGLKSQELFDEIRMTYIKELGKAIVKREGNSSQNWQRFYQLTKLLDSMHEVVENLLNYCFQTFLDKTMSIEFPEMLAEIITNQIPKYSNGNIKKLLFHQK
# Method: Binding of compound G to the glucocorticoid receptor was investigated using a standard competition assay. The conditions were as follows:
# IC50 values were determined by a non-linear, least squares regression The KI values were calculated using the equation of Cheng and Prusoff using the observed IC50 of the test compound, the concentration of radioligand employed in the assay, and the historic values for the Kd for the ligand. The Hill coefficient (nH), defined as the slope of the competitive binding curve, was calculated.
# glucocorticoid receptor [2] = target: T2, glucocorticoid receptor; assay: Selectivity for transrepression over transactivation in vitro; type: cell-based; parameters: expressed in transfected cells; host or cells: COS 7 (African green monkey kidney, deficient in endogenous GR)
compound,measurement,setting,value
CCCNC(=O)C1(O)C(C)CC2C3CCC4=CC(=O)C=CC4(C)C3(F)C(O)CC21C (stereo not drawn) [Compound G],binding to the progesterone receptor,progesterone receptor,not to bind to the progesterone receptor
same,"binding to the glucocorticoid receptor, competition with 3H Dexamethasone",glucocorticoid receptor [1],bound to the glucocoticoid receptor; also recorded: right shifted when compared to dexamethasone; also recorded: less potent ligand than dexamethasone
same,selectivity for transrepression over transactivation,glucocorticoid receptor [2],approximately 1000 fold
